Reference: patent US20130231292A1, “Synergistic anti-proliferation activity of TAS-108 with mTOR inhibitors against cancer cells” (priority 2012, published 2013)
Entries after “also recorded” stand apart in the source; their conditions may differ. Values belong to the compound of their own block, whether it stands above or below them.

Legend:
Type in all cases: cell-based
MDAMB468 = assay: CellTiter-Glo cell viability assay, single agents, three days; conditions: Homo sapiens, MDA-MB-468, 72 h; for Emax: MDAMB468, highest dose tested, read-out: Max Inhibition; for GI50: MDAMB468, three days, CellTiter-Glo
T47D = assay: as above; conditions: Homo sapiens, 72 h; for Emax: highest dose tested, read-out: Max Inhibition; for GI50: three days, CellTiter-Glo, read-out: GI50
MDAMB231 = assay: as above; conditions: Homo sapiens, MDA-MB-231, 72 h; for Emax: MDAMB231, highest dose tested, read-out: Max Inhibition; for GI50: MDAMB231, three days, CellTiter-Glo
MCF7 = assay: as above; conditions: Homo sapiens, 72 h; for Emax: MCF7, highest dose tested, read-out: Max Inhibition; for GI50: MCF7, three days, CellTiter-Glo, read-out: GI50
HS578T = assay: as above; conditions: Homo sapiens, Hs-578T, 72 h, HS578T; for Emax: highest dose tested, read-out: Max Inhibition; for GI50: three days, CellTiter-Glo, read-out: GI50
BT549 = assay: as above; conditions: Homo sapiens, BT-549, 72 h; for Emax: BT549, highest dose tested, read-out: Max Inhibition; for GI50: BT549, three days, CellTiter-Glo
[1] = system: 60 cancer cell lines of different tissues of origin; assay: Non-bias 5x4 checkerboard combination screen of TAS108 with 30 chemotherapeutic agents; design: ES: synergistic effect size: scale not given here; conditions: for ES: synergistic effect size: in combination with TAS-108, meta analysis across doses and 60 cell lines
From the text: We used 5×4 factorial (checkerboard) design. The combinations were screened against 60 cancer cell lines of different tissues of origin, including melanoma, ovarian, CNS, renal, lung, breast, colon, prostate, and leukemia cancers, represented by cell lines including LOXIMVI, M14,MDAMB468, HT29, NCIH522, HS578T, RPMI8226, HOP92, HL60, OVCAR8, SR, SKMEL2, PC3, HOP62, HCC2998,786O, U251, OVCAR3, NCIH23, T47D, SF295, MOLT4, HCT15, SF539, BT549, SN12C, KM12, ADRRES, A498, NCIH226, NCIH322M, OVCAR5, MALME, OVCAR4, RXF393, SW620, CCRFCEM, UACC62, ACHN, SKOV3, SF268, EKVX, A549, NCIH460, IGROV1, SNB75, UACC257, UO31, HCT116, TK10, K562, SKMEL28, COLO205, SNB19, MDAMB231, DU145, CAKI1, MDAMB435, and MCF7.
After quantifying the degree of synergy for specified doses of compounds within each individual cell line, we used meta analysis to aggregate those effects across doses and the cell line panel (Table 1).

- GI50 (MDAMB468): 1.9 µM
- GI50 (T47D): 5.8 µM
- GI50 (MDAMB231): 14 µM
Structure (SMILES): CS(=O)(=O)CCNCc1ccc(-c2ccc3ncnc(Nc4ccc(OCc5cccc(F)c5)c(Cl)c4)c3c2)o1 [Lapatinib]
- Emax (MDAMB468): 99%
- Emax (T47D): 31%
- Emax (MDAMB231): 98%

- GI50 (MCF7): 25 µM
Structure (SMILES): O=C(c1ccc(OCCN2CCCCC2)cc1)c1c(-c2ccc(O)cc2)sc2cc(O)ccc12 [Raloxifene]
- Emax (MCF7): 27%

- GI50 (MDAMB468): 16 µM
- GI50 (T47D): 0.86 µM
- GI50 (MDAMB231): 0.0099 µM
- GI50 (BT549): 0.058 µM
Structure (SMILES): Cc1nc(Nc2ncc(C(=O)Nc3c(C)cccc3Cl)s2)cc(N2CCN(CCO)CC2)n1 [Dasatinib]
- Emax (HS578T): 79%
- GI50 (HS578T): 0.015 µM
- Emax (MDAMB468): 40%
- Emax (T47D): 37%
- Emax (MDAMB231): 82%
- Emax (BT549): 51%

Structure (SMILES): Nc1nc(F)nc2c1ncn2[C@@H]1O[C@H](CO)[C@@H](O)[C@@H]1O [FluroaraA]
- ES: synergistic effect size [1]: 0.008

- GI50 (MDAMB468): 76 µM
Structure (SMILES): C#Cc1cccc(Nc2ncnc3cc(OCCOC)c(OCCOC)cc23)c1 [Erlotinib]
- Emax (MDAMB468): 34%

- GI50 (MDAMB231): 26 µM
- GI50 (BT549): 29 µM
Structure (SMILES): Cc1ccc(NC(=O)c2ccc(CN3CCN(C)CC3)cc2)cc1Nc1nccc(-c2cccnc2)n1 [Imatinib]
- Emax (MDAMB231): 91%

Structure (SMILES): CC(=O)O[C@@]12CO[C@@H]1C[C@H](O)[C@@]1(C)C(=O)[C@H](O)C3=C(C)[C@@H](OC(=O)[C@H](O)[C@@H](NC(=O)OC(C)(C)C)c4ccccc4)C[C@@](O)([C@@H](OC(=O)c4ccccc4)[C@H]21)C3(C)C [Docetaxel]
- synergy with TAS-108 across the cell line panel (in words) ([1]; in combination with TAS-108): synergy was consistently found; also recorded: significant synergy
- ES: synergistic effect size [1]: 0.23

Structure (SMILES): O=c1[nH]c(=O)n([C@H]2C[C@H](O)[C@@H](CO)O2)cc1F [Floxuridine]
- ES: synergistic effect size [1]: −0.016

Structure (SMILES): Nc1ccn([C@@H]2O[C@H](CO)[C@@H](O)C2(F)F)c(=O)n1 [Gemcitabine]
- ES: synergistic effect size [1]: −0.007

Structure (SMILES): O=C(CCCCCCC(=O)Nc1ccccc1)NO [Vorinostat]
- ES: synergistic effect size [1]: 0.004

Structure (SMILES): CCc1c2c(nc3ccc(O)cc13)-c1cc3c(c(=O)n1C2)COC(=O)[C@]3(O)CC [SN38]
- ES: synergistic effect size [1]: 0.022

Structure (SMILES): CCCCCOC(=O)Nc1nc(=O)n([C@@H]2O[C@H](C)[C@@H](O)[C@H]2O)cc1F [Capecitabine]
- ES: synergistic effect size [1]: −0.001

- GI50 (MCF7): 1 µM
Structure (SMILES): C[C@]12CC[C@@H]3c4ccc(O)cc4C[C@@H](CCCCCCCCC[S+]([O-])CCCC(F)(F)C(F)(F)F)[C@H]3[C@@H]1CC[C@@H]2O (stereo partly drawn) [Faslodex]
- Emax (MCF7): 30%
- Emax (T47D): 24%

Structure (SMILES): Nc1ccn([C@@H]2O[C@H](CO)[C@@H](O)[C@@H]2O)c(=O)n1 [Cytarabine]
- ES: synergistic effect size [1]: −0.008

- GI50 (MDAMB468): 21 µM
- GI50 (MDAMB231): 5.6 µM
- GI50 (BT549): 4.2 µM
Structure (SMILES): CCN(CC)CCNC(=O)c1c(C)[nH]c(/C=C2\C(=O)Nc3ccc(F)cc32)c1C [Sunitinib]
- Emax (HS578T): 65%
- GI50 (HS578T): 6.9 µM
- Emax (MDAMB231): 99%
- Emax (BT549): 100%

Structure (SMILES): CC[C@]1(O)C[C@H]2CN(CCc3c([nH]c4ccccc34)[C@@](C(=O)OC)(c3cc4c(cc3OC)N(C=O)[C@H]3[C@@](O)(C(=O)OC)[C@H](OC(C)=O)[C@]5(CC)C=CCN6CC[C@]43[C@@H]65)C2)C1 [Vincristine]
- ES: synergistic effect size [1]: 0.023

- GI50 (MDAMB231): 14 µM
Structure (SMILES): Cc1cn(-c2cc(NC(=O)c3ccc(C)c(Nc4nccc(-c5cccnc5)n4)c3)cc(C(F)(F)F)c2)cn1 [Nilotinib]

Structure (SMILES): N.N.O=C([O-])C1(C(=O)[O-])CCC1.[Pt+2] [Carboplatin]
- ES: synergistic effect size [1]: −0.004
